Literature values as cited in patent US20050095200A1, “Prokinetic drugs assistance to small intestine imaging” (priority 2003, published 2005).
Where two headings read alike, the source gives them in different places.

Assays:
stomach = settings: for food emptying half-life from the stomach: oral 15 mg Metoclopramide 30 minutes prior to tagged food; for subjects with barium emptied from the stomach after 60 minutes: 3 minutes after intake of barium
[1] = for half-life: in vivo
[2] = Medline cross-correlation with 12,155 bleeding publications
healthy subjects = settings: about 10 mg Cisapride by mouth
[3] = healthy subjects, about 30 mg/day Cisapride by mouth (10x3)
[4] = manometric measurement, intravenous injection of about 10 mg Cisapride

## CCN(CC)CCNC(=O)c1cc(Cl)c(N)cc1OC [Metoclopramide, AMINO-4 CHLORO-5 N-(DIETHYLAMINO-2 ETHYL) METHOXY-2 BENZAMIDE]
stomach; diabetics with gastroparesis, 10 mg Metoclopramide intravenously
  emptying indigestible radio-opaque markers during the first hour: lack of efficiency
stomach; diabetics with gastroparesis, semi-solid tagged substance, 30 mg Metoclopramide per day (3x10), down from 110
  mean half-life of stomach emptying: 1.12 h
stomach; healthy subjects
  food emptying half-life from the stomach: 1.2 h
stomach; intravenous 10 mg Metoclopramide
  subjects with barium emptied from the stomach after 60 minutes: 93.5%
stomach; patients with reflux esophagitis
  food emptying half-life from the stomach: 0.993 h
[1]
  half-life: about 5 hours
[1]; oral
  absorption when taken orally: rapid and good
  bio-availability: about 77%
[1]; oral dose of 10 mg
  graph of plasma concentration at various times after oral administration: linear
Small intestine; about single 20 mg dose of Metoclopramide
  intensity of segmentary contraction: may be insufficient
[2]
  reports of bleeding from the digestive tract caused by the drug: not a single description of bleeding damage
Intravenous about 10 mg and oral about 20 mg
  safety profile: high safety profile

## COc1cc(N)c(Cl)cc1C(=O)NC1CCN(CCCOc2ccc(F)cc2)CC1OC (stereo not drawn) [Cisapride, CIS-4-AMINO-5-CHLORO-N-(1-(4-FLUOROPHENOXY) PROPYL)3 METHOXY-4-PIPERIDINYL)-2 METHOXYBENZAMIDE MONOHYDRATE]
stomach; about 10 mg Cisapride by mouth
  stomach emptying t1/2: about 78 min
  stomach emptying time, effect: not affected
stomach; diabetics with gastroparesis, 5 mg Cisapride intravenously
  emptying indigestible radio-opaque markers during the first hour: lack of efficiency
stomach; intravenous 8 mg Cisapride
  subjects with barium emptied from the stomach after 60 minutes: 85%
Duodenum and jejunum; [3]
  change in the number of waves or in the wavelength: no change
  increase of amplitude in mmHg in the duodenum and jejunum: over 18.4%
Duodenum and jejunum; [4]
  contraction amplitude in the jejunum increased by: about 43%
  contraction frequency: increased
[1]
  half-life: about 10 hours
[1]; oral
  bio-availability: about 40%
Healthy subjects
  decrease of transit time of solid food: about 20%
Small intestine; daily dose of about 10 to 15 mg Cisapride
  intensity of segmentary contraction: may be insufficient
[2]
  reports of bleeding from the digestive tract caused by the drug: not a single report of bleeding from the digestive tract caused by Cisapride
In vivo
  cases with abdominal discomfort: about 16%
  cases with abdominal pain: about 4%
